PubChem BioAssay AID1259407 (Chemical Carcinogenesis Research Information System (CCRIS), 2018)
Active and inactive are the calls of the source. The rule behind the calls is not given here.

System: CCRIS mutagenicity, Ames/micronucleus/aberration tests
Assay: CCRIS mutagenicity studies

Compound: CC1=C2C(=CO[C@H](C)[C@H]2C)C(=O)C(C(=O)O)=C1O
- mutagenic call (End Point: In vivo chromosomal aberrations, Test System: Bone marrow cells, Species: Mouse, Strain/Sex: Balb/C / Male, Route: Intraperitoneal): active; positive (structural changes)
- mutagenic call (Test System: AMES SALMONELLA TYPHIMURIUM, Strain/Indicator: TA97, Metabolic Activation: NONE, Method: STANDARD PLATE): inactive; negative
- mutagenic call (Test System: AMES SALMONELLA TYPHIMURIUM, Strain/Indicator: TA97, Metabolic Activation: RAT LIVER S-9, AROCLOR 1254, Method: STANDARD PLATE): inactive; negative
- mutagenic call (Test System: AMES SALMONELLA TYPHIMURIUM, Strain/Indicator: TA98, Metabolic Activation: NONE, Method: STANDARD PLATE): inactive; negative
- mutagenic call (Test System: AMES SALMONELLA TYPHIMURIUM, Strain/Indicator: TA98, Metabolic Activation: RAT LIVER S-9, AROCLOR 1254, Method: STANDARD PLATE): inactive; negative
- mutagenic call (Test System: AMES SALMONELLA TYPHIMURIUM, Strain/Indicator: TA100, Metabolic Activation: NONE, Method: PREINCUBATION): inactive; negative
- mutagenic call (Test System: AMES SALMONELLA TYPHIMURIUM, Strain/Indicator: TA100, Metabolic Activation: NONE, Method: STANDARD PLATE): inactive; negative
- mutagenic call (Test System: AMES SALMONELLA TYPHIMURIUM, Strain/Indicator: TA100, Metabolic Activation: RAT LIVER S-9, AROCLOR 1254, Method: STANDARD PLATE): inactive; negative
- mutagenic call (Test System: AMES SALMONELLA TYPHIMURIUM, Strain/Indicator: TA100, Metabolic Activation: RAT, LIVER, S-9, PHENOBARBITAL, Method: PREINCUBATION): inactive; negative
- mutagenic call (Test System: AMES SALMONELLA TYPHIMURIUM, Strain/Indicator: TA102, Metabolic Activation: NONE, Method: STANDARD PLATE): inactive; negative
- mutagenic call (Test System: AMES SALMONELLA TYPHIMURIUM, Strain/Indicator: TA102, Metabolic Activation: RAT, LIVER, S-9, AROCLOR 1254, Method: STANDARD PLATE): inactive; negative
- mutagenic call (Test System: AMES SALMONELLA TYPHIMURIUM, Strain/Indicator: TA1535, Metabolic Activation: NONE, Method: STANDARD PLATE): inactive; negative
- mutagenic call (Test System: AMES SALMONELLA TYPHIMURIUM, Strain/Indicator: TA1535, Metabolic Activation: RAT LIVER S-9, AROCLOR 1254, Method: STANDARD PLATE): inactive; negative
- mutagenic call (Test System: AMES SALMONELLA TYPHIMURIUM, Strain/Indicator: TA1537, Metabolic Activation: NONE, Method: STANDARD PLATE): inactive; negative
- mutagenic call (Test System: AMES SALMONELLA TYPHIMURIUM, Strain/Indicator: TA1537, Metabolic Activation: RAT LIVER S-9, AROCLOR 1254, Method: STANDARD PLATE): inactive; negative

Compound: NC(=O)N(CCBr)N=O
- mutagenic call (Test System: E. COLI B, Strain/Indicator: H/R30R, Metabolic Activation: NONE): active; positive
- mutagenic call (Test System: E. COLI B, Strain/Indicator: HS30R, Metabolic Activation: NONE): active; positive

Compound: COC1=CC(=O)O[C@@H](CCc2ccc3c(c2)OCO3)C1
- mutagenic call (Test System: Mouse lymphoma cells, Strain/Indicator: L5178Y ( tk+/tk-), Metabolic Activation: Human, Liver, S-9, Method: Suspension/plate): inactive; negative
